Biological target: T1, purified recombinant rat FAAH (Rattus norvegicus, UniProt P97612)
T1 construct: The truncated rat FAAH (rFAAH) was expressed in E. coli and purified as described; made in house; host or cells: E. coli
T1 sequence (P97612 30-579 limits assumed): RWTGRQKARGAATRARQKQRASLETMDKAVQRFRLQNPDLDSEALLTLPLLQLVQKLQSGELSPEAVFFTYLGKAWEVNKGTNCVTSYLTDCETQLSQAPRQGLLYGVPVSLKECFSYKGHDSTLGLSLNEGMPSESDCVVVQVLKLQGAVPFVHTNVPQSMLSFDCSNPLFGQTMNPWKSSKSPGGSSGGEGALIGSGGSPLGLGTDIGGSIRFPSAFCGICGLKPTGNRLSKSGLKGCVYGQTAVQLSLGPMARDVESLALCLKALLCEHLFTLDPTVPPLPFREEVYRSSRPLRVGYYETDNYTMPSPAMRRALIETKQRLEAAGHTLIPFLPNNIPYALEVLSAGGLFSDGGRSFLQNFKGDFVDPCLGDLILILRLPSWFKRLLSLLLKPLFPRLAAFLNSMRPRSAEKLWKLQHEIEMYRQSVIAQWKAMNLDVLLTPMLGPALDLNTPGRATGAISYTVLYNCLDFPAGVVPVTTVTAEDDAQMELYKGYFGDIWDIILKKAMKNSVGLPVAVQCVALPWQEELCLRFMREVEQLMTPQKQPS
Assay: FAAH inhibition enzyme assay (14C-oleamide hydrolysis, Dixon plot)
Assay type: biochemical
Settings: rat FAAH
Method: Enzyme assays were performed at 20-23° C. with purified recombinant rat FAAH expressed in E. coli (Patricelli, M. P.; Lashuel, H. A.; et al. Biochemistry 1998, 37, 15177-15187) (unless indicated otherwise) or with solubilized COS-7 membrane extracts from cells transiently transfected with human FAAH cDNA (Giang, D. K.; Cravatt, B. F. Proc. Natl. Acad. Sci. U.S.A. 1997, 94, 2238-2242) (where specifically indicated) in a buffer of 125 mM Tris/1 mM EDTA/0.2% glycerol/0.02% Triton X-100/0.4 mM Hepes, pH 9.0 buffer (Patricelli, M. P.; Patterson, J. P.; et al. Bioorg. Med. Chem. Lett. 1998, 8, 613-618). The initial rates of hydrolysis (≦10-20% reaction) were monitored using enzyme concentrations at least three times below the measured Ki by following the breakdown of ^14C-oleamide and Ki's (standard deviations are provided in Supporting Information tables) were established as described (Dixon plot) (Boger, D. L.; Sato, H.; et al. Proc. Natl. Acad. Sci. U.S.A. 2000, 97, 5044-5049). Lineweaver-Burk analysis previously established reversible, competitive inhibition (Boger, D. L.; Miyauchi, H.; et al. J. Med. Chem. 2005, 48, 1849-1856).
FAAH Inhibition. ^14C-labeled oleamide was prepared from ^14C-labeled oleic acid as described (Cravatt, B. F.; et al. Science 1995, 268, 1506-1509). The truncated rat FAAH (rFAAH) was expressed in E. coli and purified as described (Patricelli, M. P.; Lashuel, H. A.; et al. Biochemistry 1998, 37, 15177-15187). The purified recombinant rFAAH was used in the inhibition assays unless otherwise indicated. The full-length human FAAH (hFAAH) was expressed in COS-7 cells as described (Giang, D. K.; Cravatt, B. F. Proc. Natl. Acad. Sci. U.S.A. 1997, 94, 2238-2242), and the lysate of hFAAH-transfected COS-7 cells was used in the inhibition assays where explicitly indicated.
The inhibition assays were performed as described (Cravatt, B. F.; et al. Science 1995, 268, 1506-1509). In brief, the enzyme reaction was initiated by mixing 1 nM of rFAAH (800, 500, or 200 pM rFAAH for inhibitors with Ki≦1-2 nM) with 10 μM of ^14C-labeled oleamide in 500 μL of reaction buffer (125 mM TrisCl, 1 mM EDTA, 0.2% glycerol, 0.02% Triton X-100, 0.4 mM Hepes, pH 9.0) at room temperature in the presence of three different concentrations of inhibitor. The enzyme reaction was terminated by transferring 20 μL of the reaction mixture to 500 μL of 0.1 N HCl at three different time points. The ^14C-labeled oleamide (substrate) and oleic acid (product) were extracted with EtOAc and analyzed by TLC as detailed (Cravatt, B. F.; et al. Science 1995, 268, 1506-1509). The Ki of the inhibitor was calculated using a Dixon plot as described (standard deviations are provided in the Supporting Information tables) (Boger, D. L.; Sato, H.; et al. Proc. Natl. Acad. Sci. U.S.A. 2000, 97, 5044-5049). Lineweaver-Burk analysis was performed as described confirming competitive, reversible inhibition (Boger, D. L.; Miyauchi, H.; et al. J. Med. Chem. 2005, 48, 1849-1856).

SMILES | FAAH inhibitory potency (in words)
O=C(CCCCCCc1cccs1)c1ncc(-c2ccccn2)o1 [5a, 1-Oxo-1-[5-(2-pyridyl)oxazol-2-yl]-7-(2-thienyl)heptane] | effective inhibitors
O=C(CCCCCCc1ccsc1)c1ncc(-c2ccccn2)o1 [5b, 1-Oxo-1-[5-(2-pyridyl)oxazol-2-yl]-7-(3-thienyl)heptane] | effective inhibitors
O=C(CCCCCCc1cccc2ccccc12)c1ncc(-c2ccccn2)o1 [5c, 1-Oxo-1-[5-(2-pyridyl)oxazol-2-yl]-7-(1-naphthyl)heptane] | effective inhibitors
O=C(CCCCCCc1ccc2ccccc2c1)c1ncc(-c2ccccn2)o1 [5d, 1-Oxo-1-[5-(2-pyridyl)oxazol-2-yl]-7-(2-naphthyl)heptane] | effective inhibitors
CS(=O)(=O)c1cccc(CCCCCCC(=O)c2ncc(-c3ccccn3)o2)c1 [5ll, 1-Oxo-1-[5-(2-pyridyl)oxazol-2-yl]-7-(3-(methylsulfonyl)phenyl)heptane] | significant potency
CCCCCCc1ccc(CCCCCCC(=O)c2ncc(-c3ccccn3)o2)cc1 [5nn, 1-Oxo-1-[5-(2-pyridyl)oxazol-2-yl]-7-(4-hexylphenyl)heptane] | significant potency
CCCCCCc1cccc(CCCCCCC(=O)c2ncc(-c3ccccn3)o2)c1 [5oo, 1-Oxo-1-[5-(2-pyridyl)oxazol-2-yl]-7-(3-hexylphenyl)heptane] | less effective
O=C(CSCCCCc1ccccc1)c1ncc(-c2ccccn2)o1 [12b, 2-(4-Phenylbutylthio)-1-(5-(pyridin-2-yl)oxazol-2-yl)ethanone] | significant potency
O=C(CS(=O)(=O)CCCCc1ccccc1)c1ncc(-c2ccccn2)o1 [12d, 2-(4-Phenylbutylsulfonyl)-1-(5-(pyridin-2-yl)oxazol-2-yl)ethanone] | significant loss in potency
O=C(CCCCSCc1ccccc1)c1ncc(-c2ccccn2)o1 [12k, 5-(Benzylthio)-1-(5-(pyridin-2-yl)oxazol-2-yl)pentan-1-one] | significant potency
O=C(CCCCCSc1ccccc1)c1ncc(-c2ccccn2)o1 [12p, 6-(Phenylthio)-1-(5-(pyridin-2-yl)oxazol-2-yl)hexan-1-one] | significant potency
O=C(CCC(=O)c1ncc(-c2ccccn2)o1)NCCc1ccccc1 [13a, 4-Oxo-N-phenethyl-4-(5-(pyridin-2-yl)oxazol-2-yl)butanamide] | lower ability to inhibit FAAH
O=C(CCC(O)CCCc1ccccc1)c1ncc(-c2ccccn2)o1 (stereo not drawn) [13f, 4-Hydroxy-7-phenyl-1-(5-(pyridin-2-yl)oxazol-2-yl)heptan-1-one] | lower potency
O=C(c1ncc(-c2ccccn2)o1)C1CC1 [14d, Cyclopropyl(5-(pyridin-2-yl)oxazol-2-yl)methanone] | loss of activity
O=C(c1ncc(-c2ccccn2)o1)C1CCCC1 [14e, Cyclopentyl(5-(pyridin-2-yl)oxazol-2-yl)methanone] | loss of activity
O=C(CCl)c1ncc(-c2ccccn2)o1 [14f, 2-Chloro-1-(5-(pyridin-2-yl)oxazol-2-yl)ethanone] | submicromolar inhibitor of FAAH
O=C(CCCCc1ccccc1)CC(=O)c1ncc(-c2ccccn2)o1 [14g, 7-Phenyl-1-(5-(pyridin-2-yl)oxazol-2-yl)heptane-1,3-dione] | significant loss of inhibitory potency
OC(CCCCc1ccccc1)CC(O)c1ncc(-c2ccccn2)o1 (stereo not drawn) [14h, 7-Phenyl-1-(5-(pyridin-2-yl)oxazol-2-yl)heptane-1,3-diol] | substantial loss in inhibitory potency
CN(CCCCc1ccccc1)CC(O)c1ncc(-c2ccccn2)o1 (stereo not drawn) [14i, 2-(Methyl(4-phenylbutyl)amino)-1-(5-(pyridin-2-yl)oxazol-2-yl)ethanol] | substantial loss in inhibitory potency

Same assay, conditions: rat FAAH, o- and p-methylsulfone vs 5ll

SMILES | fold less effective than m-methylsulfone 5ll
CS(=O)(=O)c1ccccc1CCCCCCC(=O)c1ncc(-c2ccccn2)o1 [5kk, 1-Oxo-1-[5-(2-pyridyl)oxazol-2-yl]-7-(2-(methylsulfonyl)phenyl)heptane] | approximately 10 fold
CS(=O)(=O)c1ccc(CCCCCCC(=O)c2ncc(-c3ccccn3)o2)cc1 [5mm, 1-Oxo-1-[5-(2-pyridyl)oxazol-2-yl]-7-(4-(methylsulfonyl)phenyl)heptane] | approximately 10 fold

Same assay, conditions: recombinant rat FAAH, 14C-oleamide, pH 9.0, 20-23 °C

SMILES | Ki
O=C(CCCCCCc1cccc2ccccc12)c1ncc(-c2ccccn2)o1 [5c, 1-Oxo-1-[5-(2-pyridyl)oxazol-2-yl]-7-(1-naphthyl)heptane] | 2.6 nM
O=C(CCCCCCc1cccc(Cl)c1)c1ncc(-c2ccccn2)o1 [5hh, 1-Oxo-1-[5-(2-pyridyl)oxazol-2-yl]-7-(3-chlorophenyl)heptane] | 0.9 nM
O=C(CCCCCSc1ccccc1)c1ncc(-c2ccccn2)o1 [12p, 6-(Phenylthio)-1-(5-(pyridin-2-yl)oxazol-2-yl)hexan-1-one] | 3 nM
O=C(c1ncc(-c2ccccn2)o1)C(O)CCCCCc1ccccc1 (stereo not drawn) [13d, 2-Hydroxy-7-phenyl-1-(5-(pyridin-2-yl)oxazol-2-yl)heptan-1-one] | 8 nM

System: not given
Assay: not given
Settings: not given

SMILES | melting point
O=C(CCCCC#Cc1cccc(Cl)c1)c1ncc(-c2ccccn2)o1 [4hh, 1-Oxo-1-[5-(2-pyridyl)oxazol-2-yl]-7-(3-chlorophenyl)hept-6-yne] | 50 to 51 °C
O=C(CCCCCCc1cccc(Cl)c1)c1ncc(-c2ccccn2)o1 [5hh, 1-Oxo-1-[5-(2-pyridyl)oxazol-2-yl]-7-(3-chlorophenyl)heptane] | 91 to 92 °C

Source: patent publication US8124778B2, “Tricyclic inhibitors of fatty acid amide hydrolase” (The Scripps Research Institute, priority 2007, dated 2012)
